# Laboratory results published in PubChem BioAssay AID1347409 (Pan Lab, Icahn School of Medicine at Mount Sinai, 2020).
# Inconclusive results are not listed. Calls of active or inactive are those of the source.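 Rule for the calls: active = EC50 at or below 10 µM; inconclusive = EC50 above 10 and up to 20 µM; inactive = EC50 above 20 µM.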
# Tested on: MV4-11 apoptosis, Annexin V flow cytometry, 48 h
# Test: MV4-11 leukemia cell apoptotic death – Annexin V, flow cytometry, dose response (AID 1347409)
row,Structure (SMILES),EC50
1,Cc1ccc(NC(=O)c2ccc(Cl)cc2Cl)c(S(=O)(=O)O)c1,90.1 µM (inactive)
2,CCNc1ccc(Br)cc(C(=O)/C=C/c2c(Cl)cccc2Cl)c1=O,4.4 µM
3,CN(CCC(=O)C=Cc1ccc(Cl)c(Cl)c1)CCc1ccc2c(c1)OCO2,5.2 µM
4,CCOC(=O)c1c(NC(=O)CCC(=O)O)sc(C)c1-c1ccc(CC(C)C)cc1,33.6 µM (inactive)
5,CCCCCCCCCOc1ccc(C#CC(=O)O)cc1,32.4 µM (inactive)
6,NCCCSc1nc2c(c(=O)n1Cc1ccccc1)C1(CCCCC1)Cc1ccccc1-2,2.4 µM
7,COc1ccc(C=C2C(=O)N(Cc3ccco3)C(=O)N(C(C)C)C2=O)cc1,60 µM (inactive)
8,Cc1ccc2c(c1)-c1c(c(C(=O)N3CCN(c4cc(C)ccc4C)CC3)nn1C)CS2,68.2 µM (inactive)
9,CCOc1ccc2nc3cc(NC(=O)c4ccco4)ccc3c(N)c2c1,1.3 µM
10,CCOc1cccc2c1N[C@@H](c1ccc(C(=O)O)cc1)[C@H]1CC=C[C@@H]21,113 µM (inactive)
11,Cc1ccc([C@@H]2Nc3c(ccc(C(=O)O)c3C)[C@@H]3C=CC[C@@H]32)cc1,94.8 µM (inactive)
